Results published in patent US12708632B2 (Jazz Pharmaceuticals Research UK Limited, priority 2020, dated 2026).

Test system: seizures associated with Cortical Dysplasia and Cortical Brain Malformation
Assay: Open label, expanded-access program of botanically derived purified CBD: caregiver-diary seizure frequency
Format: in vivo, human patients
Set-up: reduction in atonic seizures over the treatment period / reduction in tonic seizures over the treatment period / reduction in focal seizures without impairment over the treatment period: concentration or dose not given beside the values
Conditions: for Seizure frequency: Tonic-clonic: baseline 13.0; for Seizure frequency: Myoclonic: baseline 4.0
Procedure: Subjects were required to be on one or more AEDs at stable doses for a minimum of two weeks prior to baseline and to have stable vagus nerve stimulation (VNS) settings and ketogenic diet ratios for a minimum of four weeks prior to baseline.
Dose was then increased weekly by 5 mg/kg/day to a goal of 20 to 25 mg/kg/day.
A maximum dose of 50 mg/kg/day could be utilised for patients who were tolerating the medication but had not achieved seizure control; these patients had further weekly titration by 5 mg/kg/day.
Modifications were made to concomitant AEDs as per clinical indication.
Seizure frequency, intensity, and duration were recorded by caregivers in a diary during a baseline period of at least 28 days. Changes in seizure frequency relative to baseline were calculated after at least 2 weeks and at defined timepoints of treatment.
Patients may be defined as responders if they had more than 50% reduction in seizure frequency compared to baseline. the percent change in seizure frequency was calculated as follows: […]
The percent change of seizure frequency may be calculated for any time interval where seizure number has been recorded. For the purpose of this example the percent change of seizure frequency for the end of the treatment period was calculated as follows: […]

C=C(C)[C@@H]1CCC(C)=C[C@H]1c1c(O)cc(CCCCC)cc1O [CBD, cannabidiol]
Seizure frequency: Atonic (Patient 1, 2 weeks, CBD 10.0 mg/kg/day, baseline 2.0): 0.0 seizures per week
Seizure frequency: Tonic-clonic (Patient 1, 2 weeks, CBD 10.0 mg/kg/day): 12.0 seizures per week
Seizure frequency: Atonic (Patient 1, 4 weeks, CBD 20.0 mg/kg/day, baseline 2.0): 1.0 seizures per week
Seizure frequency: Tonic-clonic (Patient 1, 4 weeks, CBD 20.0 mg/kg/day): 25.0 seizures per week
Seizure frequency: Atonic (Patient 1, 8 weeks, CBD 25.0 mg/kg/day, baseline 2.0): 3.0 seizures per week
Seizure frequency: Tonic-clonic (Patient 1, 8 weeks, CBD 25.0 mg/kg/day): 17.0 seizures per week
Seizure frequency: Atonic (Patient 1, 12 weeks, CBD 25.0 mg/kg/day, baseline 2.0): 1.0 seizures per week
Seizure frequency: Tonic-clonic (Patient 1, 12 weeks, CBD 25.0 mg/kg/day): 16.0 seizures per week
reduction in atonic seizures over the treatment period (Patient 1, treated for 12 weeks, vs baseline): 50%
Seizure frequency: Tonic (Patient 2, 12 weeks, CBD 5.0 mg/kg/day, baseline 140.0): 70.0 seizures per week
reduction in tonic seizures over the treatment period (Patient 2, treated for 12 weeks, vs baseline): 50%
Seizure frequency: Myoclonic (Patient 3, 4 weeks, CBD 20.0 mg/kg/day): 0.0 seizures per week
Seizure frequency: Tonic (Patient 3, 4 weeks, CBD 20.0 mg/kg/day, baseline 20.0): 4.0 seizures per week
Seizure frequency: Atonic (Patient 3, 4 weeks, CBD 20.0 mg/kg/day, baseline 24.0): 0.0 seizures per week
Seizure frequency: Myoclonic (Patient 3, 8 weeks, CBD 25.0 mg/kg/day): 0.0 seizures per week
Seizure frequency: Tonic (Patient 3, 8 weeks, CBD 25.0 mg/kg/day, baseline 20.0): 200.0 seizures per week
Seizure frequency: Atonic (Patient 3, 8 weeks, CBD 25.0 mg/kg/day, baseline 24.0): 0.0 seizures per week
Seizure frequency: Myoclonic (Patient 3, 12 weeks, CBD 14.8 mg/kg/day): 56.0 seizures per week
Seizure frequency: Tonic (Patient 3, 12 weeks, CBD 14.8 mg/kg/day, baseline 20.0): 140.0 seizures per week
Seizure frequency: Atonic (Patient 3, 12 weeks, CBD 14.8 mg/kg/day, baseline 24.0): 12.0 seizures per week
Seizure frequency: Myoclonic (Patient 3, 24 weeks, CBD 9.7 mg/kg/day): 28.0 seizures per week
Seizure frequency: Tonic (Patient 3, 24 weeks, CBD 9.7 mg/kg/day, baseline 20.0): 140.0 seizures per week
Seizure frequency: Atonic (Patient 3, 24 weeks, CBD 9.7 mg/kg/day, baseline 24.0): 12.0 seizures per week
Seizure frequency: Myoclonic (Patient 3, 36 weeks, CBD 10.9 mg/kg/day): 0.0 seizures per week
Seizure frequency: Tonic (Patient 3, 36 weeks, CBD 10.9 mg/kg/day, baseline 20.0): 60.0 seizures per week
Seizure frequency: Atonic (Patient 3, 36 weeks, CBD 10.9 mg/kg/day, baseline 24.0): 16.0 seizures per week
Seizure frequency: Myoclonic (Patient 3, 48 weeks, CBD 10.6 mg/kg/day): 20.0 seizures per week
Seizure frequency: Tonic (Patient 3, 48 weeks, CBD 10.6 mg/kg/day, baseline 20.0): 40.0 seizures per week
Seizure frequency: Atonic (Patient 3, 48 weeks, CBD 10.6 mg/kg/day, baseline 24.0): 8.0 seizures per week
Seizure frequency: Myoclonic (Patient 3, 60 weeks, CBD 17.1 mg/kg/day): 1.0 seizures per week
Seizure frequency: Tonic (Patient 3, 60 weeks, CBD 17.1 mg/kg/day, baseline 20.0): 28.0 seizures per week
Seizure frequency: Atonic (Patient 3, 60 weeks, CBD 17.1 mg/kg/day, baseline 24.0): 1.0 seizures per week
Seizure frequency: Myoclonic (Patient 3, 72 weeks, CBD 16.2 mg/kg/day): 1.0 seizures per week
Seizure frequency: Tonic (Patient 3, 72 weeks, CBD 16.2 mg/kg/day, baseline 20.0): 40.0 seizures per week
Seizure frequency: Atonic (Patient 3, 72 weeks, CBD 16.2 mg/kg/day, baseline 24.0): 1.0 seizures per week
Seizure frequency: Myoclonic (Patient 3, 96 weeks, CBD 24.5 mg/kg/day): 16.0 seizures per week
Seizure frequency: Tonic (Patient 3, 96 weeks, CBD 24.5 mg/kg/day, baseline 20.0): 28.0 seizures per week
Seizure frequency: Atonic (Patient 3, 96 weeks, CBD 24.5 mg/kg/day, baseline 24.0): 2.0 seizures per week
Seizure frequency: Myoclonic (Patient 3, 120 weeks, CBD 17.7 mg/kg/day): 16.0 seizures per week
Seizure frequency: Tonic (Patient 3, 120 weeks, CBD 17.7 mg/kg/day, baseline 20.0): 6.0 seizures per week
Seizure frequency: Atonic (Patient 3, 120 weeks, CBD 17.7 mg/kg/day, baseline 24.0): 4.0 seizures per week
Seizure frequency: Myoclonic (Patient 3, 132 weeks, CBD 17.3 mg/kg/day): 16.0 seizures per week
Seizure frequency: Tonic (Patient 3, 132 weeks, CBD 17.3 mg/kg/day, baseline 20.0): 6.0 seizures per week
Seizure frequency: Atonic (Patient 3, 132 weeks, CBD 17.3 mg/kg/day, baseline 24.0): 4.0 seizures per week
Seizure frequency: Myoclonic (Patient 3, 144 weeks, CBD 19.9 mg/kg/day): 40.0 seizures per week
Seizure frequency: Tonic (Patient 3, 144 weeks, CBD 19.9 mg/kg/day, baseline 20.0): 56.0 seizures per week
Seizure frequency: Atonic (Patient 3, 144 weeks, CBD 19.9 mg/kg/day, baseline 24.0): 2.0 seizures per week
reduction in atonic seizures over the treatment period (Patient 3, treated for 144 weeks, vs baseline): 91.7%
Seizure frequency: Tonic (Patient 4, 4 weeks, CBD 20.0 mg/kg/day, baseline 196.0): 60.0 seizures per week
Seizure frequency: Tonic (Patient 4, 8 weeks, CBD 25.0 mg/kg/day, baseline 196.0): 40.0 seizures per week
Seizure frequency: Tonic (Patient 4, 12 weeks, CBD 30.0 mg/kg/day, baseline 196.0): 80.0 seizures per week
Seizure frequency: Tonic (Patient 4, 24 weeks, CBD 50.0 mg/kg/day, baseline 196.0): 24.0 seizures per week
Seizure frequency: Tonic (Patient 4, 36 weeks, CBD 50.0 mg/kg/day, baseline 196.0): 32.0 seizures per week
Seizure frequency: Tonic (Patient 4, 48 weeks, CBD 50.0 mg/kg/day, baseline 196.0): 54.0 seizures per week
Seizure frequency: Tonic (Patient 4, 60 weeks, CBD 50.0 mg/kg/day, baseline 196.0): 24.0 seizures per week
Seizure frequency: Tonic (Patient 4, 72 weeks, CBD 49.0 mg/kg/day, baseline 196.0): 24.0 seizures per week
Seizure frequency: Tonic (Patient 4, 84 weeks, CBD 46.0 mg/kg/day, baseline 196.0): 36.0 seizures per week
